Calls of active or inactive are those of the source. The calls are words filed in the database; no cut-off is given here.
Experiments:
[1] = target: T1, Albumin (Bos taurus, UniProt P02769); experiment: Binding affinity to bovine serum albumin assessed as quenching rate constant at 310 K after 1 hr by luminescence spectrometric analysis; conditions: cattle
[2] = target: T1, Albumin; experiment: Binding affinity to bovine serum albumin assessed as change in enthalpy; conditions: cattle
[3] = Antioxidant activity assessed as reduction in ascorbate-iron-H2O2-mediated hydroxy radical generation at 100 uM after 30 mins by thiobarbituric acid method; assay type: functional
[4] = system: SK-BR-3; experiment: Cytotoxicity against human SK-BR-3 cells assessed as caspase3/7 activation at 10 uM after 24 hrs by fluorescence assay relative to control; assay type: functional
[5] = target: T1, Albumin; experiment: Binding affinity to bovine serum albumin assessed as association constant at 303 K after 1 hr by luminescence spectrometric analysis; conditions: cattle
[6] = system: MDA-MB-231; experiment: Cytotoxicity against human MDA-MB-231 cells assessed as disruption of mitochondrial membrane potential by measuring TMRM level in mitochondria at 10 uM after 24 hrs by fluorescence assay relative to control; assay type: functional
[7] = system: MDA-MB-231; experiment: Antiproliferative activity against human MDA-MB-231 cells assessed as inhibition of cell growth measured after 24 hrs by MTT assay; assay type: functional, cell-based; conditions: MDA-MB-231, 24 h
[8] = target: T1, Albumin; experiment: Binding affinity to bovine serum albumin assessed as free energy change at 303 K; conditions: cattle
[9] = target: T1, Albumin; experiment: Binding affinity to bovine serum albumin assessed as free energy change at 298 K; conditions: cattle
[10] = system: T47D; experiment: Cytotoxicity against human T47D cells assessed as caspase3/7 activation at 10 uM after 24 hrs by fluorescence assay relative to control; assay type: functional
[11] = system: MDA-MB-231; experiment: Cytotoxicity against human MDA-MB-231 cells assessed as ROS production at 10 uM after 24 hrs by CMH2DCFDA probe-based fluorescence assay relative to control; assay type: functional
[12] = target: T1, Albumin; experiment: Binding affinity to bovine serum albumin assessed as quenching rate constant at 298 K after 1 hr by luminescence spectrometric analysis; conditions: cattle
[13] = Antioxidant activity assessed as DPPH radical scavenging activity at 100 uM incubated for 60 mins in dark relative to control; assay type: functional
[14] = system: T47D; experiment: Cytotoxicity against human T47D cells assessed as disruption of mitochondrial membrane potential by measuring TMRM level in mitochondria at 10 uM after 24 hrs by fluorescence assay relative to control; assay type: functional
[15] = target: T1, Albumin; experiment: Binding affinity to bovine serum albumin assessed as Stem-Volmer quenching constant at 310 K after 1 hr by luminescence spectrometric analysis; conditions: cattle
[16] = Antioxidant activity assessed as delay in time of AAPH-induced pyranine consumption at 100 uM by spectrophotometric analysis; assay type: functional
[17] = system: MDA-MB-231; experiment: Cytotoxicity against human MDA-MB-231 cells assessed as caspase3/7 activation at 10 uM after 24 hrs by fluorescence assay relative to control; assay type: functional
[18] = target: T1, Albumin; experiment: Binding affinity to bovine serum albumin assessed as Stem-Volmer quenching constant at 298 K after 1 hr by luminescence spectrometric analysis; conditions: cattle
[19] = system: SK-BR-3; experiment: Cytotoxicity against human SK-BR-3 cells assessed as ROS production at 10 uM after 24 hrs by CMH2DCFDA probe-based fluorescence assay relative to control; assay type: functional
[20] = system: T47D; experiment: Antiproliferative activity against human T47D cells assessed as inhibition of cell growth measured after 24 hrs by MTT assay; assay type: functional, cell-based
[21] = system: A549; experiment: Cytotoxicity against human A549 cells assessed as reduction in cell viability up to 100 uM measured after 24 hrs by crystal violet staining based assay; assay type: functional
[22] = system: SK-BR-3; experiment: Antiproliferative activity against human SK-BR-3 cells assessed as inhibition of cell growth measured after 24 hrs by MTT assay; assay type: functional, cell-based; conditions: SK-BR-3, 24 h
[23] = system: A549; experiment: Cytotoxicity in human A549 cells assessed as increase in DHR123 oxidation to form rhodamine 123 measured after 30 mins by fluorescence spectroscopy; assay type: functional, cell-based
[24] = system: SK-BR-3; experiment: Cytotoxicity against human SK-BR-3 cells assessed as disruption of mitochondrial membrane potential by measuring TMRM level in mitochondria at 10 uM after 24 hrs by fluorescence assay relative to control; assay type: functional
[25] = target: T1, Albumin; experiment: Binding affinity to bovine serum albumin assessed as association constant at 298 K after 1 hr by luminescence spectrometric analysis; conditions: cattle
[26] = Antioxidant activity assessed as reduction in PMS induced superoxide anion activity preincubated for 15 mins followed by PMS addition and measured after 5 mins by NBT assay; assay type: functional; conditions: time 20.0 min
[27] = target: T1, Albumin; experiment: Binding affinity to bovine serum albumin assessed as Stem-Volmer quenching constant at 303 K after 1 hr by luminescence spectrometric analysis; conditions: cattle
[28] = system: T47D; experiment: Cytotoxicity against human T47D cells assessed as ROS production at 10 uM after 24 hrs by CMH2DCFDA probe-based fluorescence assay relative to control; assay type: functional
[29] = system: A549; experiment: Antiproliferative activity against human A549 cells after 72 hrs by Alamar blue assay; assay type: functional, cell-based; conditions: A549, 72 h
[30] = target: T1, Albumin; experiment: Binding affinity to bovine serum albumin assessed as quenching rate constant at 303 K after 1 hr by luminescence spectrometric analysis; conditions: cattle
[31] = target: T1, Albumin; experiment: Binding affinity to bovine serum albumin assessed as free energy change at 310 K; conditions: cattle
[32] = target: T1, Albumin; experiment: Binding affinity to bovine serum albumin assessed as association constant at 310 K after 1 hr by luminescence spectrometric analysis; conditions: cattle

T1 sequence (P02769 whole entry): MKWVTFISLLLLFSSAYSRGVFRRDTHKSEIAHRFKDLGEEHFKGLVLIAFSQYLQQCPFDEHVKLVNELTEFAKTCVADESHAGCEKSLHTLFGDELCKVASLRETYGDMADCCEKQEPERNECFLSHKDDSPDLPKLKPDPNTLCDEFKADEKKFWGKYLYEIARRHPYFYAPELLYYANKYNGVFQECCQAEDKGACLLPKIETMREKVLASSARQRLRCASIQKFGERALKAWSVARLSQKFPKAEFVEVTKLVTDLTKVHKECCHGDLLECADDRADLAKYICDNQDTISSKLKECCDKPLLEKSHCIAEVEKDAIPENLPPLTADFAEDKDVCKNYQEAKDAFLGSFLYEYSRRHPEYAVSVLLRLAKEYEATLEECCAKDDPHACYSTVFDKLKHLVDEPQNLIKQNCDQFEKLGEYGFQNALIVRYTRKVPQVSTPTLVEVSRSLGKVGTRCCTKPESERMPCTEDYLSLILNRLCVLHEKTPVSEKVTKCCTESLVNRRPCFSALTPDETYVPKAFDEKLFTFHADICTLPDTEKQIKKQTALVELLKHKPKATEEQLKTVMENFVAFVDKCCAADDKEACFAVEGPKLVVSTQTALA

COc1ccc(-c2cc(=O)c3c(O)cc(O[C@@H]4O[C@H](CO[C@@H]5O[C@@H](C)[C@H](O)[C@@H](O)[C@H]5O)[C@@H](O)[C@H](O)[C@H]4O)cc3o2)cc1O [DIOSMIN]
Kq [1]: 1.18 10^12L/mol/s | deltaH [2]: -35.057 kcal/mol | Activity [3]: inactive | Activity [4]: 116% | Ka [5]: 0.88 10^4L/mol | Activity [6]: 104% | IC50 [7]: 70 µM | deltaG [8]: -5.373 kcal/mol | deltaG [9]: -5.863 kcal/mol | Activity [10]: 99% | Activity [11]: 110% | Kq [12]: 3.08 10^12L/mol/s | Activity [13]: 14% | Activity [14]: 96% | KSV [15]: 1.18 10^4L/mol | TIME [16]: 0.0233 h | Activity [17]: 106% | KSV [18]: 3.08 10^4L/mol | Activity [19]: 104% | IC50 [20]: > 100 µM | Activity [21]: inactive | IC50 [22]: > 100 µM | Activity [23]: inactive | Activity [24]: 78% | Ka [25]: 1.84 10^4L/mol | Activity [26]: inactive | KSV [27]: 1.95 10^4L/mol | Activity [28]: 105% | IC50 [29]: > 40 µM | Kq [30]: 1.95 10^12L/mol/s | deltaG [31]: -4.687 kcal/mol | Ka [32]: 0.19 10^4L/mol

Reference: ChEMBL document CHEMBL5257030, “Antioxidant, anticancer activities and mechanistic studies of the flavone glycoside diosmin and its oxidovanadium(IV) complex. Interactions with bovine serum albumin” (Bioorg Med Chem, 2016)
